Data taken from patent US5140009A (Tap Pharmaceuticals, Inc., priority 1990, dated 1992).
Numbered stars: 1 amine (or outer) side, 2 acyl side, 3 side chain; on linkers, the order of the positions; unused ones are H or OH. Square brackets hold non-standard residues; d marks the D form. Peptide text beside a SMILES is read from it. * marks the point of attachment. Propanoyl(3-(4-F-phenyl)) = O=C(CCc1ccc(F)cc1)*; Propanoyl(3-(4-Cl-Ph)) = O=C(CCc1ccc(Cl)cc1)*; X10 = O=C([C@@H](Cc1cncs1)N[*:1])[*:2]; d1Nal = N[C@H](Cc1cccc2ccccc12)C(=O)O; dLys(iPr) = CC(C)NCCCC[C@@H](N)C(=O)O; Lys(iPr) = CC(C)NCCCC[C@H](N)C(=O)O; NMeY = CN[C@@H](Cc1ccc(O)cc1)C(=O)O; dBta = N[C@H](Cc1csc2ccccc12)C(=O)O; Pyrazinecarbonyl = O=C(c1cnccn1)*; NMeF = CN[C@@H](Cc1ccccc1)C(=O)O; d3Pal = N[C@H](Cc1cccnc1)C(=O)O; NMeL = CN[C@@H](CC(C)C)C(=O)O; Nicotinoyl = O=C(c1cccnc1)*; dOrn = NCCC[C@@H](N)C(=O)O; Bn = c1ccc(C*)cc1

molecular target: T1, LHRH receptors (Rattus norvegicus, UniProt P30969); assay: Receptor Binding (radioligand receptor binding assay); details: table 4; rat pituitary membranes, radioligand 50 pM, 2 hours at 4° C.; read-out: Receptor Binding pkI (converted)
T1 construct: Pituitary membranes containing LHRH receptors are prepared in batches from quick-frozen rat pituitaries; tissue Hilltop Labs; host or cells: rat pituitary membranes
T1 sequence (P30969 1-327): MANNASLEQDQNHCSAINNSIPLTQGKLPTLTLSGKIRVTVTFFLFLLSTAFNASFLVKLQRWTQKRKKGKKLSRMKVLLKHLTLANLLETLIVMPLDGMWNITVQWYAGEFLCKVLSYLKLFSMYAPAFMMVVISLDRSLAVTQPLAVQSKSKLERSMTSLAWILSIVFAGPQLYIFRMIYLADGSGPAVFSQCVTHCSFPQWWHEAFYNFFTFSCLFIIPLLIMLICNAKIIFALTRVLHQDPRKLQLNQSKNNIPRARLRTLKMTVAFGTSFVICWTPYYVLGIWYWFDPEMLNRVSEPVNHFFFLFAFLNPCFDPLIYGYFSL

| Ki [nM] | SMILES |
| --- | --- |
| 0.00331 | COc1ccc(C[C@H](NC(=O)[C@H](CO)NC(=O)[C@@H](Cc2cccc3ccccc23)NC(=O)CCc2ccc(F)cc2)C(=O)N[C@H](CCCCN)C(=O)N[C@@H](CC(C)C)C(=O)N[C@@H](CCCNC(=N)N)C(=O)N2CCC[C@H]2C(=O)N[C@H](C)C(N)=O)cc1 [Compound 188, (3-10)[N-(3-(4-Fluorophenyl)propionyl)-D-1-Nal^3 -Tyr^5 (OMe)-D-Lys^6 -D-Ala^10]LHRH] ({Propanoyl(3-(4-F-phenyl))}-[d1Nal]SY(Me)[dK]LRP[dA]-NH2) |
| 0.0055 | CC(C)C[C@H](NC(=O)[C@@H](CCCCN)NC(=O)[C@H](Cc1ccccc1)N(C)C(=O)[C@H](CO)NC(=O)[C@@H](Cc1cccc2ccccc12)NC(=O)CCc1ccc(F)cc1)C(=O)N[C@@H](CCCNC(=N)N)C(=O)N1CCC[C@H]1C(=O)N[C@H](C)C(N)=O [Compound 189, (3-10)[N-(3-(4-Fluorophenyl)propionyl)-D-1-Nal^3 -NMePhe^5 -D-Lys^6 -D-Ala^10]LHRH] ({Propanoyl(3-(4-F-phenyl))}-[d1Nal]S[NMeF][dK]LRP[dA]-NH2) |
| 0.0158 | CC(C)C[C@@H](C(=O)N[C@@H](CCCNC(=N)N)C(=O)N1CCC[C@H]1C(=O)N[C@H](C)C(N)=O)N(C)C(=O)[C@@H](CCCCN)NC(=O)[C@H](Cc1ccc(O)cc1)N(C)C(=O)[C@H](CO)NC(=O)[C@@H](Cc1cccc2ccccc12)NC(=O)CCc1ccc(F)cc1 [Compound 190, (3-10)[N-(3-(4-Fluorophenyl)propionyl)-D-1-Nal^3 -NMeTyr^5 -D-Lys^6 -NMeLeu^7 -D-Ala^10]LHRH] ({Propanoyl(3-(4-F-phenyl))}-[d1Nal]S[NMeY][dK][NMeL]RP[dA]-NH2) |
| 0.00955 | CC(C)C[C@H](NC(=O)[C@@H](CCCCNC(=O)c1cccnc1)NC(=O)[C@H](CCCCNC(=O)c1cccnc1)NC(=O)[C@H](CO)NC(=O)[C@@H](Cc1cccc2ccccc12)NC(=O)CCc1ccc(F)cc1)C(=O)N[C@@H](CCCNC(=N)N)C(=O)N1CCC[C@H]1C(=O)N[C@H](C)C(N)=O [Compound 191] ({Propanoyl(3-(4-F-phenyl))}-[d1Nal]SK(Nicotinoyl)[dK](Nicotinoyl)LRP[dA]-NH2) |
| 0.00676 | CC(C)C[C@H](NC(=O)[C@@H](CCCN)NC(=O)[C@H](Cc1ccc(O)cc1)N(C)C(=O)[C@H](CO)NC(=O)[C@@H](Cc1cccc2ccccc12)NC(=O)CCc1ccc(F)cc1)C(=O)N[C@@H](CCCNC(=N)N)C(=O)N1CCC[C@H]1C(=O)N[C@H](C)C(N)=O [Compound 192, (3-10)[N-(3-(4-Fluorophenyl)propionyl)-D-1-Nal^3 -NMeTyr^5 -D-Orn^6 -D-Ala^10]LHRH] ({Propanoyl(3-(4-F-phenyl))}-[d1Nal]S[NMeY][dOrn]LRP[dA]-NH2) |
| 0.191 | CC(C)C[C@H](NC(=O)[C@@H](CCCCNC(=O)c1cccnc1)NC(=O)[C@H](Cc1ccc(O)cc1)N(C)C(=O)[C@H](CO)NC(=O)[C@@H](Cc1cccnc1)NC(=O)CCc1ccc(Cl)cc1)C(=O)N[C@@H](CCCCNC(C)C)C(=O)N1CCC[C@H]1C(=O)N[C@H](C)C(N)=O [Compound 194, (3-10)[N-(3-(4-Chlorophenyl)propionyl)-D-3-Pal^3 -NMeTyr^5 -D-Lys^6 (N-epsilon-nicotinyl)-Lys^8 (N-epsilon-isopropyl)-D-Ala^10]LHRH] ({Propanoyl(3-(4-Cl-Ph))}-[d3Pal]S[NMeY][dK](Nicotinoyl)L[Lys(iPr)]P[dA]-NH2) |
| 0.0234 | CC(C)C[C@H](NC(=O)[C@@H](Cc1ccc(O)cc1)NC(=O)[C@H](Cc1ccc(O)cc1)N(C)C(=O)[C@H](CO)NC(=O)[C@@H](Cc1c[nH]c2ccccc12)NC(=O)CCc1ccc(F)cc1)C(=O)N[C@@H](CCCCNC(C)C)C(=O)N1CCC[C@H]1C(=O)N[C@H](C)C(N)=O [Compound 196, (3-10)[N-(3-(4-Fluorophenyl)propionyl)-D-Trp^3 -NMeTyr^5 -D-Tyr^6 -Lys^8 (N-epsilon-isopropyl)-D-Ala^10]LHRH] ({Propanoyl(3-(4-F-phenyl))}-[dW]S[NMeY][dY]L[Lys(iPr)]P[dA]-NH2) |
| 0.00933 | CC(C)C[C@H](NC(=O)[C@@H](CCCCNC(C)C)NC(=O)[C@H](Cc1ccc(O)cc1)N(C)C(=O)[C@H](CO)NC(=O)[C@@H](Cc1csc2ccccc12)NC(=O)CCc1ccc(F)cc1)C(=O)N[C@@H](CCCNC(=N)N)C(=O)N1CCC[C@H]1C(=O)N[C@H](C)C(N)=O [Compound 198, (3-10)[N-(3-(4-Fluorophenyl)propionyl)-D-3-Bal^3 -NMeTyr^5 -D-Lys^6 (N-epsilon-isopropyl)-D-Ala^10]LHRH] ({Propanoyl(3-(4-F-phenyl))}-[dBta]S[NMeY][dLys(iPr)]LRP[dA]-NH2) |
| 0.00832 | CC(C)C[C@H](NC(=O)[C@@H](CCCCN)NC(=O)[C@H](Cc1ccc(O)cc1)N(C)C(=O)[C@H](CO)NC(=O)[C@@H](Cc1cccc2ccccc12)NC(=O)CCc1ccc(F)cc1)C(=O)N[C@@H](CCCCNC(C)C)C(=O)N1CCC[C@H]1C(=O)N[C@H](C)C(N)=O [Compound 199, (3-10)[N-(3-(4-Fluorophenyl)propionyl)-D-1-Nal^3 -NMeTyr^5 -D-Lys^6 -Lys^8 (N-epsilon-isopropyl)-D-Ala^10]LHRH] ({Propanoyl(3-(4-F-phenyl))}-[d1Nal]S[NMeY][dK]L[Lys(iPr)]P[dA]-NH2) |
| 0.00437 | COc1ccc(C[C@H](NC(=O)[C@H](CO)NC(=O)[C@@H](Cc2cccc3ccccc23)NC(=O)CCc2ccc(F)cc2)C(=O)N[C@H](CCCCNC(=O)c2cccnc2)C(=O)N[C@@H](CC(C)C)C(=O)N[C@@H](CCCCNC(C)C)C(=O)N2CCC[C@H]2C(=O)N[C@H](C)C(N)=O)cc1 [Compound 200, (3-10)[N-(3-(4-Fluorophenyl)propionyl)-D-1-Nal^3 -Tyr^5 (OMe)-D-Lys^6 (N-epsilon-nicotinyl)-Lys^8 (N-epsilon-isopropyl)-D-Ala^10]LHRH] ({Propanoyl(3-(4-F-phenyl))}-[d1Nal]SY(Me)[dK](Nicotinoyl)L[Lys(iPr)]P[dA]-NH2) |
| 0.0204 | CC(C)C[C@H](NC(=O)[C@@H](Cc1cccnc1)NC(=O)[C@H](Cc1ccc(O)cc1)NC(=O)[C@H](CO)NC(=O)[C@@H](Cc1cccc2ccccc12)NC(=O)CCc1ccc(F)cc1)C(=O)N[C@@H](CCCCNC(C)C)C(=O)N1CCC[C@H]1C(=O)N[C@H](C)C(N)=O [Compound 201, (3-10)[N-(3-(4-Fluorophenyl)propionyl)-D-1-Nal^3 -D-3Pal^6 -Lys^8 (N-epsilon-isopropyl)-D-Ala^10]LHRH] ({Propanoyl(3-(4-F-phenyl))}-[d1Nal]SY[d3Pal]L[Lys(iPr)]P[dA]-NH2) |
| 0.138 | CC(C)C[C@H](NC(=O)[C@@H](Cc1cccnc1)NC(=O)[C@H](Cc1ccc(O)cc1)NC(=O)[C@H](COCc1ccccc1)NC(=O)[C@@H](Cc1cccc2ccccc12)NC(=O)CCc1ccc(F)cc1)C(=O)N[C@@H](CCCCNC(C)C)C(=O)N1CCC[C@H]1C(=O)N[C@H](C)C(N)=O [Compound 202, (3-10)[N-(3-(4-Fluorophenyl)propionyl)-D-1-Nal^3 -Ser^4 (O-Bzl)-D-3-Pal^6 -Lys^8 (N-epsilon-isopropyl)-D-Ala^10]LHRH] ({Propanoyl(3-(4-F-phenyl))}-[d1Nal]S(Bn)Y[d3Pal]L[Lys(iPr)]P[dA]-NH2) |
| 0.0209 | COc1ccc(C[C@H](NC(=O)[C@H](CO)NC(=O)[C@@H](Cc2cccc3ccccc23)NC(=O)CCc2ccc(F)cc2)C(=O)N[C@H](CCCCNC(=O)c2cnccn2)C(=O)N[C@@H](CC(C)C)C(=O)N[C@@H](CCCCNC(C)C)C(=O)N2CCC[C@H]2C(=O)N[C@H](C)C(N)=O)cc1 [Compound 203, (3-10)[N-(3-(4-Fluorophenyl)propionyl)-D-1-Nal^3 -Tyr^5 (OMe)-D-Lys^6 (N-epsilon-2-carbonylpyrazinyl)-Lys^8 (N-epsilon-isopropyl)-D-Ala^10]LHRH] ({Propanoyl(3-(4-F-phenyl))}-[d1Nal]SY(Me)[dK](Pyrazinecarbonyl)L[Lys(iPr)]P[dA]-NH2) |
| 0.0214 | CC(C)C[C@H](NC(=O)[C@@H](Cc1cncs1)NC(=O)[C@H](Cc1ccc(O)cc1)N(C)C(=O)[C@H](CO)NC(=O)[C@@H](Cc1cccc2ccccc12)NC(=O)CCc1ccc(F)cc1)C(=O)N[C@@H](CCCCNC(C)C)C(=O)N1CCC[C@H]1C(=O)N[C@H](C)C(N)=O [Compound 204, (3-10)[N-(3-(4-Fluorophenyl)propionyl)-D-1-Nal^3 -NMeTyr^5 -D-Thiaz6-Lys^8 (N-epsilon-isopropyl)-D-Ala^10]LHRH] ({Propanoyl(3-(4-F-phenyl))}-[d1Nal]S[NMeY][X10]L[Lys(iPr)]P[dA]-NH2) |
| 0.0302 | CC(C)C[C@H](NC(=O)[C@@H](CCCCNC(=O)c1cccnc1)NC(=O)[C@H](Cc1ccccc1)N(C)C(=O)[C@H](CO)NC(=O)[C@@H](Cc1cccc2ccccc12)NC(=O)CCc1ccc(F)cc1)C(=O)N[C@@H](CCCCNC(C)C)C(=O)N1CCC[C@H]1C(=O)N[C@H](C)C(N)=O [Compound 205, (3-10)[N-(3-(4-Fluorophenyl)propionyl)-D-1-Nal^3 -NMePhe^5 -D-Lys^6 (N-epsilon-nicotinyl)-D-Ala^10]LHRH] ({Propanoyl(3-(4-F-phenyl))}-[d1Nal]S[NMeF][dK](Nicotinoyl)L[Lys(iPr)]P[dA]-NH2) |
| 0.0126 | CC(C)C[C@H](NC(=O)[C@@H](Cc1cccnc1)NC(=O)[C@H](Cc1ccc(O)cc1)N(C)C(=O)[C@H](CO)NC(=O)[C@@H](Cc1cccc2ccccc12)NC(=O)CCc1ccc(F)cc1)C(=O)N[C@@H](CCCCNC(C)C)C(=O)N1CCC[C@H]1C(=O)N[C@H](C)C(N)=O [Compound 208, (3-10)[N-(3-(4-Fluorophenyl)propionyl)-D-1-Nal^3 -NMeTyr^5 -D-3-Pal^6 -Lys^8 (N-epsilon-isopropyl)-D-Ala^10]LHRH] ({Propanoyl(3-(4-F-phenyl))}-[d1Nal]S[NMeY][d3Pal]L[Lys(iPr)]P[dA]-NH2) |
